Key:
[1] = biological target: T1, 3',5'-cyclic-AMP phosphodiesterase 4B (Homo sapiens, UniProt Q07343); experiment: Inhibition of human PDE4B
[2] = species: Homo sapiens; experiment: Selectivity index, ratio of IC50 for human PDE4D to IC50 for human PDE4B
[3] = biological target: T2, 3',5'-cyclic-AMP phosphodiesterase 4D (Homo sapiens, UniProt Q08499); experiment: Inhibition of human PDE4D
[4] = biological target: T1, 3',5'-cyclic-AMP phosphodiesterase 4B; experiment: Inhibition of human PDE4B1
[5] = biological target: T2, 3',5'-cyclic-AMP phosphodiesterase 4D; experiment: Inhibition of human PDE4D7

T2 sequence (Q08499 whole entry): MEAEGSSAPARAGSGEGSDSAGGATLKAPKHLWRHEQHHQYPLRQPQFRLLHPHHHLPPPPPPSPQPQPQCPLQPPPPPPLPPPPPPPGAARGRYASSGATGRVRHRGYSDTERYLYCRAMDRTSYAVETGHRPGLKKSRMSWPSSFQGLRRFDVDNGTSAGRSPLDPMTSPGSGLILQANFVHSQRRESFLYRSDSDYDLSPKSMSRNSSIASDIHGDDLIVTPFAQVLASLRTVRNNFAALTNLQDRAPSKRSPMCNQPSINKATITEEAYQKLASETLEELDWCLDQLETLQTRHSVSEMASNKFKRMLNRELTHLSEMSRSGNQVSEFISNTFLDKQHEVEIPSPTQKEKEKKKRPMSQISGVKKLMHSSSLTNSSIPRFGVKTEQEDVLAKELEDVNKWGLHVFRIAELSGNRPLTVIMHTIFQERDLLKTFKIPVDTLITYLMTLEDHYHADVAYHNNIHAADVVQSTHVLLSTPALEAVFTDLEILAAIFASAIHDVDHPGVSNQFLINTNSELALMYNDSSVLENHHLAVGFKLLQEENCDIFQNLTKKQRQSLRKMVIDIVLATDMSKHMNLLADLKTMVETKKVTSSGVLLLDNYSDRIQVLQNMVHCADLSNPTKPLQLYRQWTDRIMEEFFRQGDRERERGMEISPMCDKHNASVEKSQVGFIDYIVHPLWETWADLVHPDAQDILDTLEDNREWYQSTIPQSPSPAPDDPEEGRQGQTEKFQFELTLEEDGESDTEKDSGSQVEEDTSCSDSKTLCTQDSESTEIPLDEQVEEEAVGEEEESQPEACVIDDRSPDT
T1 sequence (Q07343 whole entry): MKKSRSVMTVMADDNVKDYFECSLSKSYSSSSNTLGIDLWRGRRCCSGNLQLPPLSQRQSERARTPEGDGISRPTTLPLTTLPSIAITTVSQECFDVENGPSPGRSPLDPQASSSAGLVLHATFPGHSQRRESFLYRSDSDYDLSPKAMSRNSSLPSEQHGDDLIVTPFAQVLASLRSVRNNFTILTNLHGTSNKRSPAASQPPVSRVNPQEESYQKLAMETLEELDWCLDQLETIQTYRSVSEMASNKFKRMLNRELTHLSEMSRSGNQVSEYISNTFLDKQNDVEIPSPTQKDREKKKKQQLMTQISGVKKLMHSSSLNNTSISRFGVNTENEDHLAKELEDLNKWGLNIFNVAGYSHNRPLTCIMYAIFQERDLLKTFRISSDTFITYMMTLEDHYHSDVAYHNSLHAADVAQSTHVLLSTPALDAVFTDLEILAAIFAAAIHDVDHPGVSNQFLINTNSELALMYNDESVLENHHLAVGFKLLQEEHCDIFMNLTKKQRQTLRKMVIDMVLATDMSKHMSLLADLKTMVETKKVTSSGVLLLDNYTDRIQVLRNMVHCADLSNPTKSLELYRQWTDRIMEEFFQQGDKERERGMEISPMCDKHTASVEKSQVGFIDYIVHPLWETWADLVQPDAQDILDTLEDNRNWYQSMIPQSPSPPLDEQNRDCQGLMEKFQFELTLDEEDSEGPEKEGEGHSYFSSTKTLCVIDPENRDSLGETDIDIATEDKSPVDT

SMILES: CC(C)c1nc(Nc2ccc(C(=O)O)cc2)nc(-c2ccc(Cl)s2)n1
- IC50 ([1]; read-out: IC50): 220 nM
- Ratio IC50 [2]: 1
- IC50 ([3]; read-out: IC50): 219 nM

SMILES: CCc1nc(Nc2ccc(C(C)C(=O)O)cc2)nc(-c2cccc(Cl)c2)n1 (stereo not given)
- IC50 ([1]; read-out: IC50): 1090 nM
- Ratio IC50 [2]: 0.09
- IC50 ([3]; read-out: IC50): 96 nM

SMILES: CCc1nc(Nc2ccc(F)cc2)nc(-c2ccc(Cl)s2)n1
- IC50 ([1]; read-out: IC50): 1390 nM
- Ratio IC50 [2]: 0.15
- IC50 ([3]; read-out: IC50): 207 nM

SMILES: O=C(O)c1ccc(Nc2nc(-c3cccc(Cl)c3)nc(C3CC3)n2)cc1
- IC50 ([1]; read-out: IC50): 46 nM
- Ratio IC50 [2]: 0.4
- IC50 ([3]; read-out: IC50): 20 nM

SMILES: CCc1nc(Nc2ccc(CC(=O)O)cc2)nc(-c2ccc(F)cc2)n1
- IC50 ([1]; read-out: IC50): 1460 nM
- Ratio IC50 [2]: 0.5
- IC50 ([3]; read-out: IC50): 727 nM

SMILES: CCc1nc(Nc2ccc(Cc3nnn[nH]3)cc2)nc(-c2cccc(Cl)c2)n1
- IC50 ([1]; read-out: IC50): 69 nM
- Ratio IC50 [2]: 0.9
- IC50 ([3]; read-out: IC50): 63 nM

SMILES: CCOc1nc(Nc2ccc(OC)cc2)nc(OCC)n1
- IC50 [4]: 6700 nM
- IC50 [5]: 2300 nM

SMILES: CCc1nc(Nc2ccc(CC(=O)O)cc2)nc(-c2ccoc2)n1
- IC50 ([1]; read-out: IC50): 2780 nM

SMILES: O=C1NCCN1c1ccc(Nc2nc(-c3cccc(Cl)c3)nc(C3CC3)n2)cc1
- IC50 [1]: Not Active
- IC50 [3]: Not Active

SMILES: CCc1nc(Nc2ccc(-c3nn[nH]n3)cc2)nc(-c2cccc(Cl)c2)n1
- IC50 ([1]; read-out: IC50): 126 nM
- IC50 ([3]; read-out: IC50): 132 nM

SMILES: O=C(O)c1ccc(Nc2nc(-c3ccc(Cl)cc3)nc(C3CC3)n2)cc1
- IC50 ([1]; read-out: IC50): 135 nM
- Ratio IC50 [2]: 2
- IC50 ([3]; read-out: IC50): 268 nM

SMILES: O=C1CCC(NC2=NC(C3CC3)NC(c3cccc(Cl)c3)=N2)CN1 (stereo not given)
- IC50 ([1]; read-out: IC50): 135 nM
- Ratio IC50 [2]: 2
- IC50 ([3]; read-out: IC50): 268 nM

SMILES: CCc1nc(Nc2ccc(-c3nnn[nH]3)cc2)nc(-c2cccc(Cl)c2)n1
- Ratio IC50 [2]: 1

SMILES: CCc1nc(Nc2ccc(CC(=O)O)cc2)nc(-c2ccc(Cl)s2)n1
- IC50 ([1]; read-out: IC50): 383 nM
- Ratio IC50 [2]: 2.3
- IC50 ([3]; read-out: IC50): 865 nM

SMILES: O=C(O)Cc1ccc(Nc2nc(-c3ccc(Cl)s3)nc(C3CC3)n2)cc1
- IC50 ([1]; read-out: IC50): 251 nM
- Ratio IC50 [2]: 5.9
- IC50 ([3]; read-out: IC50): 1490 nM

SMILES: CC(C)c1nc(Nc2ccc(F)cc2)nc(-c2ccc(Cl)s2)n1
- IC50 ([1]; read-out: IC50): 8820 nM
- IC50 ([3]; read-out: IC50): 886 nM

SMILES: CCc1c(C)nc(-c2ccc(Cl)s2)nc1Nc1ccc(CC(=O)O)cc1
- IC50 [4]: 55 nM
- IC50 [5]: 2000 nM

SMILES: CCc1nc(Nc2ccc(NS(N)(=O)=O)cc2)nc(-c2cccc(Cl)c2)n1
- IC50 ([1]; read-out: IC50): 402 nM
- Ratio IC50 [2]: 0.4
- IC50 ([3]; read-out: IC50): 160 nM

SMILES: CC(C)c1nc(Nc2ccc(CC(=O)O)cc2)nc(-c2ccc(Cl)s2)n1
- IC50 ([1]; read-out: IC50): 1940 nM
- Ratio IC50 [2]: 1.8
- IC50 ([3]; read-out: IC50): 3580 nM

SMILES: CCc1nc(Nc2ccc(CC#N)cc2)nc(-c2cccc(Cl)c2)n1
- IC50 ([1]; read-out: IC50): 165 nM
- Ratio IC50 [2]: 0.04
- IC50 ([3]; read-out: IC50): 7 nM

SMILES: O=C(O)Cc1ccc(CNc2nc(-c3cccc(Cl)c3)nc(C3CC3)n2)cc1
- IC50 ([1]; read-out: IC50): 845 nM
- Ratio IC50 [2]: 0.86
- IC50 ([3]; read-out: IC50): 726 nM

SMILES: CCc1nc(Nc2ccc(C(C)(C)C(=O)O)cc2)nc(-c2cccc(Cl)c2)n1
- IC50 ([1]; read-out: IC50): 1570 nM
- Ratio IC50 [2]: 0.4
- IC50 ([3]; read-out: IC50): 600 nM

SMILES: CCc1nc(Nc2ccc(C(=O)O)cc2)nc(-c2cccc(Cl)c2)n1
- IC50 ([1]; read-out: IC50): 241 nM
- Ratio IC50 [2]: 0.9
- IC50 ([3]; read-out: IC50): 213 nM

SMILES: Cc1nc(Nc2ccc(C(=O)O)cc2)nc(-c2ccc(Cl)s2)n1
- IC50 ([1]; read-out: IC50): 4050 nM

SMILES: O=C(O)Cc1ccc(Nc2nc(-c3cccc(F)c3)nc(C3CC3)n2)cc1
- IC50 ([1]; read-out: IC50): 1440 nM
- Ratio IC50 [2]: 1.5
- IC50 ([3]; read-out: IC50): 2110 nM

SMILES: CCc1nc(Nc2ccc(C#N)cc2)nc(-c2cccc(Cl)c2)n1
- IC50 ([1]; read-out: IC50): 12 nM
- Ratio IC50 [2]: 1.1
- IC50 ([3]; read-out: IC50): 13 nM

SMILES: O=C(O)Cc1ccc(Nc2nc(-c3ccc(Cl)cc3)nc(C3CC3)n2)cc1
- IC50 ([1]; read-out: IC50): 3770 nM
- Ratio IC50 [2]: 1.5
- IC50 ([3]; read-out: IC50): 5610 nM

SMILES: O=C(O)Cc1ccc(CNc2nc(-c3ccc(Cl)cc3)nc(C3CC3)n2)cc1
- IC50 ([1]; read-out: IC50): 2280 nM
- Ratio IC50 [2]: 0.38
- IC50 ([3]; read-out: IC50): 859 nM

SMILES: O=C(O)Cc1ccc(Oc2nc(-c3cccc(Cl)c3)nc(C3CC3)n2)cc1
- IC50 ([1]; read-out: IC50): 1860 nM
- Ratio IC50 [2]: 1.2
- IC50 ([3]; read-out: IC50): 2270 nM

SMILES: CCCc1nc(Nc2ccc(CC(=O)O)cc2)nc(-c2ccc(Cl)s2)n1
- IC50 ([1]; read-out: IC50): 2450 nM

SMILES: O=C(O)Cc1ccc(Nc2nc(-c3cccc(Cl)c3)nc(C3CC3)n2)cc1
- IC50 ([1]; read-out: IC50): 237 nM
- Ratio IC50 [2]: 5
- IC50 ([3]; read-out: IC50): 1180 nM

SMILES: CCc1nc(Nc2ccc(CC(=O)O)cc2)nc(-c2cccc(Cl)c2)n1
- IC50 ([1]; read-out: IC50): 781 nM
- Ratio IC50 [2]: 0.9
- IC50 ([3]; read-out: IC50): 681 nM

SMILES: Cc1nc(Nc2ccc(CC(=O)O)cc2)nc(-c2ccco2)n1
- IC50 ([1]; read-out: IC50): 18800 nM
- Ratio IC50 [2]: 1.2
- IC50 ([3]; read-out: IC50): 22300 nM

SMILES: CCc1nc(Nc2ccc(C(=O)O)cc2)nc(-c2ccc(Cl)s2)n1
- IC50 ([1]; read-out: IC50): 261 nM
- Ratio IC50 [2]: 1
- IC50 ([3]; read-out: IC50): 251 nM

SMILES: Cc1nc(Nc2ccc(CC(=O)O)cc2)nc(-c2ccc(Cl)s2)n1
- IC50 ([1]; read-out: IC50): 1290 nM

— ChEMBL document CHEMBL3351246, “Discovery of triazines as selective PDE4B versus PDE4D inhibitors” (Bioorg Med Chem Lett, 2014)
